Measurements as given in PMC9050923, “6,N^2-Diaryl-1,3,5-triazine-2,4-diamines: synthesis, antiproliferative activity and 3D-QSAR modeling” (RSC Advances, 2020).

How the values were obtained:
Format in all cases: cell-based
MDA-MB231 = test: MTT assay, MDA-MB231 breast cancer cells; conditions: Homo sapiens, MDA-MB-231, MTT; for viability at 10 µM: 72 h after the treatment, mean of three independent experiments, read-out: Percentage of cell viability MDA-MB231; for GI50: 72 h, mean of three independent experiments ± SEM, read-out: GI50 (μM) ± SEM MDA-MB231
Procedure: (§1) The prepared compounds 1–126 were tested on three breast cancer cell lines namely, MDA-MB231, SKBR-3 and MCF-7 using MTT assay. SKBR-3 and MCF-7 cell lines are estrogen and progesterone hormone positive cell lines often used as a model for the hormone therapy.[18] MDA-MB231 is triple negative breast cancer cell line, which is negative to estrogen and progesterone receptors and human epidermal growth factor receptor 2, a perfect model for chemotherapy.[18] Initially, all the prepared compounds 1–126 were tested on these three cancer cell lines at the screening concentration (10 μM) and percentage of cell viability was calculated 72 h after the treatment (Table 1).
(§2) The growth inhibitory effect of the compounds was determined on breast tumor cell line (MDA-MB231, SKBR-3 and MCF-7) at different concentrations with methotrexate and nilotinib as positive controls (Table 2).
(§3) The cytotoxic activity of 6,N^2-diaryl-1,3,5-triazine-2,4-diamines (1–126) was evaluated against three breast carcinoma cell lines (MDA-MB231, SKBR-3, and MCF-7) and normal breast cell line (MCF-10A) by MTT assay.[22] All cells were obtained from the American Type Culture Collection and were grown in 10% fetal bovine serum and 1% pen-strep antibiotic supplemented media (DMEM for MDA-MB231 and SKBR-3, RPMI for MCF-7, and MEGM for MCF-10A). For MTT assay, 20 000 to 75 000 cells per mL (based on the doubling time for each cell line) were seeded in 96 well plates and incubated for 24 h at 37 °C in 5% CO2 incubator. Then, compounds at different concentrations were added followed by the incubation at 37 °C for 72 h. After that, MTT solution (0.5 mg mL^−1) was added and the plates were incubated for another 4 h. The supernatant was then discarded and 100 μL of DMSO was added to each well. The plates were then read by Tecan NanoQuant (model: infinite m200 pro) plate reader and absorbance was measured at 570 nm. GI50 values were calculated using sigmoidal concentration–response curves (see ESI ^†) generated using the GraphPad Prism 7 program. Three independent experiments were carried out and the data were represented as mean of the three experiments.

SKBR-3 = test: MTT assay, SKBR-3 breast cancer cells; conditions: Homo sapiens, SK-BR-3, MTT; for viability at 10 µM: 72 h after the treatment, mean of three independent experiments, read-out: Percentage of cell viability SKBR-3
Procedure: as §1, §2, §3

MCF-7 = test: MTT assay, MCF-7 breast cancer cells; conditions: Homo sapiens; for viability at 10 µM: MCF7, 10 μM, 72 h after the treatment, mean of three independent experiments, read-out: Percentage of cell viability MCF-7
Procedure: as §1, §2, §3

GI50 (MDA-MB231) [µM] | GI50 (MCF-7; MCF7, 72 h, mean of three independent experiments ± SEM) [µM] | GI50 (SKBR-3; 72 h, mean of three independent experiments ± SEM) [µM] | SMILES | viability at 10 µM (MDA-MB231) [%] | viability at 10 µM (SKBR-3) [%] | viability at 10 µM (MCF-7) [%]
 |  |  | Nc1nc(Nc2ccccc2)nc(-c2ccccc2)n1 [Compound 1] | 87 | 81 | 90
 |  |  | Nc1nc(Nc2ccccc2Cl)nc(-c2ccccc2)n1 [Compound 4, N ^2-(2-Chlorophenyl)-6-phenyl-1,3,5-triazine-2,4-diamine] | 72 | 88 | 81
 |  |  | Nc1nc(Nc2ccc(Cl)cc2)nc(-c2ccccc2)n1 [Compound 5] | 65 | 94 | 100
 |  |  | Nc1nc(Nc2ccc(Br)cc2)nc(-c2ccccc2)n1 [Compound 6] | 65 | 97 | 100
 |  |  | Cc1ccc(Nc2nc(N)nc(-c3ccccc3)n2)cc1 [Compound 7] | 98 | 87 | 87
 |  |  | COc1ccccc1Nc1nc(N)nc(-c2ccccc2)n1 [Compound 8] | 78 | 97 | 91
 |  |  | COc1ccc(Nc2nc(N)nc(-c3ccccc3)n2)cc1 [Compound 9] | 98 | 96 | 84
 |  |  | Nc1nc(Nc2ccc(OC(F)(F)F)cc2)nc(-c2ccccc2)n1 [Compound 10] | 96 | 86 | 92
 |  |  | CC(C)c1ccc(Nc2nc(N)nc(-c3ccccc3)n2)cc1 [Compound 11] | 99 | 86 | 99
 |  |  | Nc1nc(Nc2cccnc2)nc(-c2ccccc2)n1 [Compound 12] | 59 | 78 | 87
 |  |  | Nc1nc(Nc2ccccc2)nc(-c2cccc(F)c2)n1 [Compound 13] | 100 | 100 | 89
 |  |  | Nc1nc(Nc2ccc(Cl)cc2)nc(-c2cccc(F)c2)n1 [Compound 15] | 100 | 100 | 89
 |  |  | CC(C)c1ccc(Nc2nc(N)nc(-c3cccc(F)c3)n2)cc1 [Compound 20] | 100 | 100 | 92
 |  |  | Nc1nc(Nc2ccccc2)nc(-c2ccc(F)cc2)n1 [Compound 21] | 83 | 94 | 100
 |  |  | Nc1nc(Nc2ccccc2F)nc(-c2ccc(F)cc2)n1 [Compound 22] | 83 | 85 | 100
 |  |  | Nc1nc(Nc2ccc(F)cc2)nc(-c2ccc(F)cc2)n1 [Compound 23] | 81 | 100 | 93
 |  |  | Nc1nc(Nc2ccccc2Cl)nc(-c2ccc(F)cc2)n1 [Compound 24] | 75 | 75 | 91
 |  |  | Nc1nc(Nc2cccc(Cl)c2)nc(-c2ccc(F)cc2)n1 [Compound 25] | 73 | 88 | 95
 |  |  | Nc1nc(Nc2ccc(Cl)cc2)nc(-c2ccc(F)cc2)n1 [Compound 26] | 67 | 98 | 87
 |  |  | Nc1nc(Nc2ccc(Br)cc2)nc(-c2ccc(F)cc2)n1 [Compound 27] | 96 | 100 | 94
 |  |  | Cc1ccc(Nc2nc(N)nc(-c3ccc(F)cc3)n2)cc1 [Compound 28] | 99 | 90 | 88
 |  |  | COc1ccccc1Nc1nc(N)nc(-c2ccc(F)cc2)n1 [Compound 29] | 60 | 81 | 96
 |  |  | Nc1nc(Nc2ccc(OC(F)(F)F)cc2)nc(-c2ccc(F)cc2)n1 [Compound 31] | 88 | 92 | 87
 |  |  | CC(C)c1ccc(Nc2nc(N)nc(-c3ccc(F)cc3)n2)cc1 [Compound 32] | 94 | 100 | 84

GI50 (MDA-MB231) [µM] | GI50 (MCF-7; MCF7, 72 h, mean of three independent experiments ± SEM) [µM] | GI50 (SKBR-3; 72 h, mean of three independent experiments ± SEM) [µM] | SMILES | viability at 10 µM (MDA-MB231) [%] | viability at 10 µM (SKBR-3) [%] | viability at 10 µM (MCF-7) [%]
 |  |  | Nc1nc(Nc2cccnc2)nc(-c2ccc(F)cc2)n1 [Compound 33] | 74 | 87 | 85
 |  |  | Nc1nc(Nc2ccccc2F)nc(-c2ccc(Cl)cc2)n1 [Compound 35] | 82 | 99 | 93
 |  |  | Nc1nc(Nc2ccccc2Cl)nc(-c2ccc(Cl)cc2)n1 [Compound 37] | 99 | 89 | 99
 |  |  | Nc1nc(Nc2cccc(Cl)c2)nc(-c2ccc(Cl)cc2)n1 [Compound 38] | 99 | 92 | 84
 |  |  | Nc1nc(Nc2ccc(Cl)cc2)nc(-c2ccc(Cl)cc2)n1 [Compound 39] | 97 | 100 | 100
 |  |  | Nc1nc(Nc2ccc(Br)cc2)nc(-c2ccc(Cl)cc2)n1 [Compound 40] | 80 | 100 | 92
 |  |  | COc1ccccc1Nc1nc(N)nc(-c2ccc(Cl)cc2)n1 [Compound 41] | 83 | 89 | 100
 |  |  | COc1ccc(Nc2nc(N)nc(-c3ccc(Cl)cc3)n2)cc1 [Compound 42] | 61 | 90 | 85
 |  |  | Nc1nc(Nc2ccc(OC(F)(F)F)cc2)nc(-c2ccc(Cl)cc2)n1 [Compound 43] | 93 | 83 | 100
 |  |  | CC(C)c1ccc(Nc2nc(N)nc(-c3ccc(Cl)cc3)n2)cc1 [Compound 44] | 100 | 97 | 96
 |  |  | Nc1nc(Nc2cccnc2)nc(-c2ccc(Cl)cc2)n1 [Compound 45] | 99 | 74 | 89
 |  |  | Nc1nc(Nc2ccccc2F)nc(-c2ccc(Br)cc2)n1 [Compound 46] | 75 | 91 | 100
 |  |  | Nc1nc(Nc2ccc(F)cc2)nc(-c2ccc(Br)cc2)n1 [Compound 47] | 58 | 98 | 100
 |  |  | Nc1nc(Nc2ccccc2Cl)nc(-c2ccc(Br)cc2)n1 [Compound 48] | 90 | 93 | 100
 |  |  | Nc1nc(Nc2ccc(Cl)cc2)nc(-c2ccc(Br)cc2)n1 [Compound 49] | 96 | 100 | 100
 |  |  | Cc1ccc(Nc2nc(N)nc(-c3ccc(Br)cc3)n2)cc1 [Compound 50] | 55 | 93 | 88
 |  |  | COc1ccccc1Nc1nc(N)nc(-c2ccc(Br)cc2)n1 [Compound 51] | 88 | 89 | 96
 |  |  | COc1ccc(Nc2nc(N)nc(-c3ccc(Br)cc3)n2)cc1 [Compound 52] | 56 | 91 | 100
 |  |  | Cc1cccc(-c2nc(N)nc(Nc3ccc(F)cc3)n2)c1 [Compound 53, N ^2-(4-Fluorophenyl)-6-(3-methylphenyl)-1,3,5-triazine-2,4-diamine] | 100 | 100 | 78
 |  |  | Cc1cccc(-c2nc(N)nc(Nc3ccc(Cl)cc3)n2)c1 [Compound 54] | 100 | 93 | 76
 |  |  | Cc1cccc(-c2nc(N)nc(Nc3ccc(Br)cc3)n2)c1 [Compound 55] | 83 | 96 | 75
0.01 ± 0.001 | 5.79 ± 0.47 |  | CN(Cc1cnc2nc(N)nc(N)c2n1)c1ccc(C(=O)N[C@@H](CCC(=O)O)C(=O)O)cc1 [Methotrexate, reference compound] |  |  | 
0.04 ± 0.001 |  | 9.6 ± 0.51 | Cc1cn(-c2cc(NC(=O)c3ccc(C)c(Nc4nccc(-c5cccnc5)n4)c3)cc(C(F)(F)F)c2)cn1 [Nilotinib, reference compound] |  |  | 
